Experimental data: patent publication US4772596A, “Dihydropyridine derivatives, their preparation and their use” (Sankyo Company Limited, priority 1986, dated 1988)

What was measured:
isolated rat aorta = assay: Calcium antagonism: contractile response of isolated rat aorta to calcium chloride; format: cell-based; details: test compound 5 nM
Procedure: An isolated rat aorta was suspended in a calcium-free and high potassium Krebs-Henseleit solution maintained at a temperature of 37° C. The contractile response of the aorta to calcium chloride in concentrations ranging from 10^-5 to 10^-2 M was recorded by means of an isometric transducer. The dose-response curve of the aorta was obtained before and after addition of a test compound at a concentration of 5 nM. Addition of the test compound shifted the dose-response curve to the right, the magnitude of the shift depending upon the potency of the Ca^++ -blocking activity.

[1] = tested on: spontaneously hypertensive rats of the SHR strain; assay: Antihypertensive activity in conscious spontaneously hypertensive rats (blood pressure and heart rate); details: po; for 12 Hour Area (integrated value of the area above the graph of blood pressure change against time): 12 hours after administration
Procedure: The test animals were spontaneously hypertensive rats of the SHR strain, each aged about 15 weeks. The antihypertensive activities of the test compounds were determined in these rats as follows.
Each animal was anaesthetized with sodium pentobarbital (50 mg/kg, intraperitoneally) and a polyethylene cannula was inserted into the abdominal aorta by the method of Weeks and Jones [J. R. Weeks and J. A. Jones, Proc. Soc. Exptl. […] The other end of the cannula left the animal's body at, and was fixed to, the neck. About 1 week after this surgery, when the animal had completely recovered from surgical stress, the free end of the aortic cannula was connected to a sphygmomanmeter to measure blood pressure and heart rate of the animal directly in the conscious, aparalytic and unrestrained state.
At this time, a test compound suspended in a 0.3% w/v aqueous carboxymethylcellulose solution was administered orally in the dose shown in the following Table 8.
Tmax : the time in hours after administration of the compound under test before the maximum change in blood pressure was recorded;
To 0.5 max : the time in hours after administration of the compound under test which is required for the blood pressure to return to one half of its maximum value;

[2] = SHR, compared with nifedipine and nicardipine

| SMILES | T0.5 max (time after administration for the blood pressure to return to one half of its maximum value) ([1]; 1 mg/kg, SHR) [h] | Tmax (time after administration before the maximum change in blood pressure) ([1]; 1 mg/kg, SHR) [h] | 12 Hour Area (integrated value of the area above the graph of blood pressure change against time) ([1]; 1 mg/kg, SHR) | 12 Hour Area (integrated value of the area above the graph of blood pressure change against time) ([1]; 3 mg/kg, SHR) | also measured |
| --- | --- | --- | --- | --- | --- |
| CC1=C(C(=O)OC(C)C)C(c2cccc([N+](=O)[O-])c2)C(C(=O)OC2CN(C(c3ccccc3)c3ccccc3)C2)=C(N)N1 (stereo not drawn) [Compound 1-11, 3-(1-Benzhydryl-3-azetidinyl) 5-isopropyl 2-amino-6-methyl-4-(3-nitrophenyl)-1,4-dihydropyridine-3,5-dicarboxylate] | 10.4 | 6.0 | -184 | -334 | duration of activity (calcium antagonism) (isolated rat aorta; isolated rat aorta): excellent duration of activity; rightwards shift of the calcium chloride dose-response curve (Ca++-blocking activity) (isolated rat aorta; calcium-free high potassium Krebs-Henseleit solution, 37° C): comparable with that of nifedipine; Tmax (time after administration before the maximum change in blood pressure) ([1]; 3 mg/kg, SHR): 5.0 h; duration of the antihypertensive activity [1, 2]: much longer than that produced by nifedipine and nicardipine; time of onset of activity / speed of lowering blood pressure [1, 2]: lowered blood pressure much more slowly than did nifedipine or nicardipine; heart rate ([1]; rat, in vivo): (but not Compound 1-11) increased heart rate |
| CC1=C(C(=O)OC(C)C)C(c2cccc(Cl)c2Cl)C(C(=O)OC2CN(C(c3ccccc3)c3ccccc3)C2)=C(N)N1 (stereo not drawn) [Compound 1-59, 3-(1-Benzhydryl-3-azetidinyl) 5-isopropyl 2-amino-4-(2,3-dichlorophenyl)-6-methyl-1,4-dihydropyridine-3,5-dicarboxylate] | 12.0 | 6.0 | -203 | – | – |
| CC1=C(C(=O)OC(C)C)C(c2cccc([N+](=O)[O-])c2)C(C(=O)OC2CN(C(c3ccc(F)cc3)c3ccc(F)cc3)C2)=C(N)N1 (stereo not drawn) [Compound 1-68, 3-[1-(4,4'-Difluorobenzhydryl)-3-azetidinyl]5-isopropyl 2-amino-6-methyl-4-(3-nitrophenyl)-1,4-dihydropyridine-3,5-dicarboxylate] | 11.8 | 7.0 | -218 | – | – |
| CC1=C(C(=O)OC(C)C)C(c2cccc([N+](=O)[O-])c2)C(C(=O)OC2CCN(C(c3ccccc3)c3ccccc3)C2)=C(N)N1 (stereo not drawn) [Compound 2-8, 3-(1-Benzhydryl-3-pyrrolidinyl) 5-isopropyl 2-amino-6-methyl-4-(3-nitrophenyl)-1,4-dihydropyridine-3,5-dicarboxylate] | 11.2 | 6.0 | -172 | – | – |
| CC1=C(C(=O)OC(C)C)C(c2cccc([N+](=O)[O-])c2)C(C(=O)OC2CCCN(C(c3ccccc3)c3ccccc3)C2)=C(N)N1 (stereo not drawn) [Compound 3-8, 3-(1-Benzhydryl-3-piperidyl) 5-isopropyl 2-amino-6-methyl-4-(3-nitrophenyl)-1,4-dihydropyridine-3,5-dicarboxylate] | 11.4 | 7.0 | -141 | – | – |
| COC(=O)C1=C(C)NC(C)=C(C(=O)OCCN(C)Cc2ccccc2)C1c1cccc([N+](=O)[O-])c1 (stereo not drawn) [nicardipine, reference compound] | – | – | – | -175 | T0.5 max (time after administration for the blood pressure to return to one half of its maximum value) ([1]; 3 mg/kg, SHR): 5.3 h; Tmax (time after administration before the maximum change in blood pressure) ([1]; 3 mg/kg, SHR): 0.5 h |
| COC(=O)C1=C(C)NC(C)=C(C(=O)OC)C1c1ccccc1[N+](=O)[O-] [nifedipine, reference compound] | – | – | – | -237 | heart rate ([1]; SHR): increased heart rate |
